By MIC is commonly meant the least concentration at which growth counts as inhibited. A lower MIC goes with a more susceptible organism. Broadly, the MBC is the smallest concentration meeting the test's criterion for killing.

Converted amounts (≈) assume the structure as drawn.

Here are results for 7 compounds from patent US7598234B2, “Steroid derived antibiotics” (Brigham Young University, priority 1998, dated 2009).

Experiment [1] deals with E. coli (ATCC 10798). Description: MIC and MBC measurement with E. coli (ATCC 10798). It counts as cell-based, Escherichia coli. The text has this:
(§1) General: Microorganisms. Reference strains were purchased from the American Type Culture Collection (Rockville, Md.) or Bactrol disks from Difeo Laboratories (Detroit, Mich.). The following specific ATCC strains were used: 10798 Escherichia coli, 25922 Escherichia coli, 13883 Klebsiella pneumoniae, 27853 Pseudomonas aeruginosa, 14028 Salmonella typhimurium, 29212 Enterococcus faecalis, 25923 Staphylococcus aureus, 19615 Streptococcus pyogenes, and 90028 Candida albicans. Bacterial strains were maintained on Mueller-Hinton agar plates, and Candida albicans was maintained on Sabouraud Dextrose agar plates.
(§2) Tryptic soy broth (TSB) was made by dissolving 27.5 grams of tryptic soy broth without dextrose (DIFCO Laboratories) in 1 liter of deionized water and sterilizing at 121° C. for 15 minutes. Solid agar (TSA) plates were made by dissolving 6.4 grams of tryptic soy broth and 12 grams of agar (purified grade, Fischer Scientific) in 800 mL of deionized water and sterilizing at 121° C. for 20 minutes. Aliquots (20 mL) of the homogeneous solution were then poured in sterile plastic petri dishes (100×15 mm, Fisher Scientific). Solutions of compounds were made by dissolving the HCl salt of the respective compound into an appropriate amount of deionized and sterilized water followed by microfiltration.
(§3) Aliquots of 1 mL of the suspension were added to test tubes containing 1 mL TSB and incrementally varied concentrations of cholic acid derivatives and/or erythromycin or novobiocin. In the sensitization experiments, erythromycin or novobiocin were added 15 minutes later than the cholic acid derivatives. The samples were subjected to stationary incubation at 37° C. for 24 hours. Sample turbidity was determined by measuring absorption at 760 nm (HP 8453 UV-Visible Chemstation, Hewlett Packard). Additionally, an alliquot from each of the samples showing no measurable turbidity was subcultured on TSA plates (alliquots were diluted to provide fewer than 300 CFU). Colonies that grew on the subculture after overnight incubation were counted and the number of CFU/mL in the samples were calculated. The calculated values were compared to the number of CFU/mL in the original inoculum.

Experiment [2] relates to E. coli (ATCC 10798). Description: Sensitization to erythromycin (concentration lowering the MIC of erythromycin), E. coli (ATCC 10798). Conditions: for MIC: concentration required to lower the MIC of erythromycin from 70 μg/mL to 1 μg/mL / MBC (with erythromycin): Table 2, E. coli (ATCC 10798); for MBC (with erythromycin): erythromycin sensitization. It counts as cell-based, Escherichia coli. On the procedure:
(§4) Alternatively, “fractional inhibitory concentration (FIC)” is also useful for determination of synergy between the compounds of the invention, or the compounds in combination with known antibiotics. FICs can be performed by checkerboard titrations of compounds in one dimension of a microtiter plate, and of antibiotics in the other dimension, for example. The FIC is calculated by looking at the impact of one antibiotic on the MIC of the other and vice versa. […] Preferably, an FIC of less than 0.5 is obtained for synergism. As used herein, FIC can be determined as follows:
as §3
(§5) Ability to permeabilize outer membrane: Compounds 11, 106, and 108-114 (FIG. 1) were tested for antibiotic activity. They were also tested for the ability to permeabilize the outer membrane of Gram-negative bacteria, causing sensitization to hydrophobic antibiotics that cannot cross the outer membrane. The permeabilization of the outer membrane was measured using erythromycin and novobiocin.
(§6) The MICs of erythromycin and novobiocin against E. coli (ATCC 10798) at 70 and >500 μg/mL were measured.

The subject of experiment [3] is Pseudomonas aeruginosa (ATCC 27853). The experiment can be described thus: MIC and MBC measurement with Pseudomonas aeruginosa (ATCC 27853). It counts as cell-based. Conditions: Table 6; P. aureginosa (ATCC 27853).
Source text: as §1, §2, §3

The test system is the same in experiment [4]. The experiment can be described thus: Sensitization to erythromycin, Pseudomonas aeruginosa (ATCC 27853). It counts as cell-based. Conditions: Table 7; P. aureginosa (ATCC 27853). As for the experimental part:
as §4
as §3, with “inoculum. […]” for “inoculum.”
To measure permeabilization, the FIC values for compounds 1, 2, 5, 106, 10, 112, 133, and 134 with erythromycin, novobiocin, and rifampicin were determined. Concentrations of 0.5, 1.0 or 3.0 μg/mL of these antibiotics were used, and the concentrations of the cholic acid derivatives required to inhibit bacterial growth of Gram-negative strains were determined.

Experiment [5] deals with E. coli (ATCC 10798). Description: Sensitization to novobiocin (concentration lowering the MIC of novobiocin), E. coli (ATCC 10798). It counts as cell-based, Escherichia coli. As for the experimental part:
as §4, §3, §5, §6

Where [6] appears, read: Table 9, Escherichia coli (ATCC 10798).

As to `C[C@H](CCCN(C)Cc1ccccc1)[C@H]1CC[C@H]2[C@@H]3[C@H](OCCCCN)C[C@@H]4C[C@H](OCCCCN)CC[C@]4(C)[C@H]3C[C@H](OCCCCN)[C@]12C` [Compound 3], the MIC is 6 µg/mL (≈ 8.44 µM) in experiment [1] (Table 1, E. coli (ATCC 10798)) and 16 µg/mL (≈ 22.5 µM) in experiment [3]. Also, the “MIC: concentration required to lower the MIC of erythromycin from 70 μg/mL to 1 μg/mL” value in experiment [2] came out at 1.5 µg/mL. Further, the “MIC: concentration required to lower the MIC of erythromycin from 240 μg/mL to 5 μg/mL” value in experiment [4] was 6 µg/mL.
Regarding `C[C@H](CCCN(C)Cc1ccccc1)[C@H]1CC[C@H]2[C@@H]3[C@H](OCCN)C[C@@H]4C[C@@H](OCCN)CC[C@]4(C)[C@H]3C[C@H](OCCN)[C@]12C` [Compound 8], the MIC in experiment [1] (Table 1, E. coli (ATCC 10798)) turned out to be 46 µg/mL (≈ 73.4 µM); in experiment [3], 50 µg/mL (≈ 79.7 µM). Further, in experiment [2], the “MIC: concentration required to lower the MIC of erythromycin from 70 μg/mL to 1 μg/mL” value is 10 µg/mL. For the same compound, the “MIC: concentration required to lower the MIC of erythromycin from 240 μg/mL to 5 μg/mL” value in experiment [4] came out at 40 µg/mL.
In experiment [1] (Table 1, E. coli (ATCC 10798)), `CCCCCCCCOCCC[C@@H](C)[C@H]1CC[C@H]2[C@@H]3[C@H](OCCCN)C[C@@H]4C[C@H](OCCCN)CC[C@]4(C)[C@H]3C[C@H](OCCCN)[C@]12C` [Compound 9] returned an MBC of 10 µg/mL (≈ 14.7 µM) and a minimal inhibitory concentration (MIC) of 3 µg/mL (≈ 4.42 µM). In experiment [2], the “MIC: concentration required to lower the MIC of erythromycin from 70 μg/mL to 1 μg/mL” value stood at 3 µg/mL and the “MBC (with erythromycin)” value stood at 3 µg/mL. This compound had a minimum inhibitory concentration (MIC) in experiment [3] of 8 µg/mL (≈ 11.8 µM). In experiment [4], the “MIC: concentration required to lower the MIC of erythromycin from 240 μg/mL to 5 μg/mL” value is 5 µg/mL.
In experiment [1] (Table 1, E. coli (ATCC 10798)), `CC(O)[C@H]1CC[C@H]2[C@@H]3[C@H](OCCCN)C[C@@H]4C[C@H](OCCCN)CC[C@]4(C)[C@H]3C[C@H](OCCCN)[C@]12C` (stereo partly drawn) [Compound 11] showed an MBC of over 160 µg/mL and an MIC of 140 µg/mL (≈ 267 µM). Besides, in experiment [1] (setting [6]), the MBC was over 160 µg/mL and the MIC is 140 µg/mL (≈ 267 µM). Besides, in experiment [2], the “MIC: concentration required to lower the MIC of erythromycin from 70 μg/mL to 1 μg/mL” value turned out to be 40 µg/mL and the “MBC (with erythromycin)” value was over 160 µg/mL. Further, in experiment [2] (setting [6]), the “(a) Concentration required to lower the MIC of erythromycin from 70 to 1 μg/mL” value worked out at 20 µg/mL, the “(b) MBC with 1 μg/mL erythromycin” value was determined as 180 µg/mL and the “FIC values with erythromycin” value is recorded as 0.16. In experiment [5] (Table 3, E. coli (ATCC 10798)), the “MIC: concentration required to lower the MIC of novobiocin from >500 μg/mL to 1 μg/mL” value amounted to 40 µg/mL. Moreover, the “MBC (with novobiocin)” value in experiment [5] (Table 3, E. coli (ATCC 10798), novobiocin sensitization) was found to be 140 µg/mL. For the same compound, in experiment [5] (setting [6]), the “(d) Concentration required to lower the MIC of novobiocin from >500 to 1 μg/mL” value worked out at 40 µg/mL and the “FIC values with novobiocin” value is 0.29.
In experiment [1] (Table 1, E. coli (ATCC 10798)), `C[C@H](CCCOCCC[C@@H](C)[C@H]1CC[C@H]2[C@@H]3[C@H](OCCCN)C[C@@H]4C[C@H](OCCCN)CC[C@]4(C)[C@H]3C[C@H](OCCCN)[C@]12C)[C@H]1CC[C@H]2[C@@H]3[C@H](OCCCN)C[C@@H]4C[C@H](OCCCN)CC[C@]4(C)[C@H]3C[C@H](OCCCN)[C@]12C` [Compound 12] came in with an MBC of 4 µg/mL (≈ 3.59 µM) and an MIC of 4 µg/mL (≈ 3.59 µM). In addition, in experiment [2], the “MIC: concentration required to lower the MIC of erythromycin from 70 μg/mL to 1 μg/mL” value was determined as 1.5 µg/mL and the “MBC (with erythromycin)” value came out at 2.5 µg/mL. Moreover, the “MIC: concentration required to lower the MIC of novobiocin from >500 μg/mL to 1 μg/mL” value in experiment [5] (Table 3, E. coli (ATCC 10798)) was found to be 2.5 µg/mL.
For the compound `C[C@H](CO)[C@H]1CC[C@H]2[C@@H]3[C@H](OCCCN)C[C@@H]4C[C@H](OCCCN)CC[C@]4(C)[C@H]3C[C@H](OCCCN)[C@]12C` [Compound 108], the “FIC values with erythromycin” value in experiment [2] (setting [6]) was found to be 0.071. Moreover, the “FIC values with novobiocin” value in experiment [5] (setting [6]) worked out at 0.17.
Turning to `C[C@H](CCO)[C@H]1CC[C@H]2[C@@H]3[C@H](OCCCN)C[C@@H]4C[C@H](OCCCN)CC[C@]4(C)[C@H]3C[C@H](OCCCN)[C@]12C` [Compound 109], the “FIC values with erythromycin” value in experiment [2] (setting [6]) was 0.071. Further, the “FIC values with novobiocin” value in experiment [5] (setting [6]) was determined as 0.22.
